Reference: US4810709A, “Nintrovincaminic acid derivatives having pharmaceutical utility” (Richter Gedeon Vegyeszefi Gyar R.T., priority 1984, dated 1989)
In brackets after ≈: the same amount, converted by molar mass. Where a name gives a salt, the structure may show the parent alone. Read-outs that look alike come from different tables or passages of the source.

Legend:
internal carotid artery = test: cerebral blood flow in the internal carotid artery of anaesthetized dogs (vasodilating effect); type: in vivo; conditions: 1 mg/kg of body-weight intravenous, chloralose-pentobarbital anaesthetized dogs
Protocol: (§1) The vasodilating effect was studied in dogs anaesthetized by a chloralose-pentobarbital mixture. […] Electromagnetic flow meters were used for measuring the blood flow. The substances under test were intravenously administered in a dose of 1 mg/kg of body-weight to 6 dogs and the percentage changes of the parameters measured were evaluated. Ethyl (+)-apovincamate, a commonly used therapeutic cerebral vasodilator was employed as reference drug.

femoral artery = test: extremital blood flow in the femoral artery of anaesthetized dogs (vasodilating effect); type: in vivo; conditions: 1 mg/kg of body-weight intravenous, chloralose-pentobarbital anaesthetized dogs
Protocol: as §1

[1] = system: isolated guinea pig ileum; test: Inhibition of barium-chloride-induced contraction of guinea pig ileum (spasmolytic activity); conditions: for IC50: Cavia porcellus, read-out: ED50, inhibition of barium-chloride-induced contraction of guinea pig ileum
Protocol: The spasmolytic activity of the compounds was determined by using the traditional method, i.e. on the isolated guinea pig ileum [Magnus, R., Pflugers Arch. 102, 123 (1904)]. Papaverine and ethyl (+)-apovincamate used as therapeutic spasmolytics were used as reference drugs.

[2] = system: conscious mice under normobaric hypoxia; test: antihypoxic activity on conscious mice under normobaric hypoxia; type: in vivo; conditions: 50 mg/kg i.p.; for Time of survival, % / Time of survival, Mean ± deviation: 96% nitrogen and 4% oxygen; for Time of survival, %: increase over control; for Time of survival, Mean ± deviation: 30 minutes before, control 6.0 ± 1.04 min; for Protection: protected = alive for twofold time of untreated animals
Protocol: According to one method, the antihypoxic activity was studied on conscious mice under normobaric hypoxia. Five male mice were placed in a glass cylinder of 3 liters volume flown through by a gas mixture containing 96% of nitrogen and 4% of oxygen. The time interval from the allocation up to the perishment of the animals was measured for 15 minutes as a maximum. The animals were considered as protected when they were alive for a twofold time length as compared to the time of perishment of the untreated animals. The compounds under test were intraperitoneally administered to 10 animals each in a dose of 50 mg/kg of body-weight 30 minutes before allocating in the glass cylinder.

asphyxic anoxia test = type: in vivo; conditions: 1 h; oral, one hour before; protected = survival longer by 30% than control
Protocol: According to the asphyxic anoxia test [Caillard O. et al.: Life Sci. 16, 1607 (1975(], the animals were starved for 16 hours, then treated orally, and one hour following the treatment they were allocated in tightly closed glass bottles of 100 ml volume. The time of survival was registered as the time interval from closing the bottle up to the last respiration. The animals were considered as protected when they were alive for a time longer by 30% than the average time of survival of the control group.
(§2) According to the hypobaric hypoxia test [Baumel J. et al.: Proc. Soc. Bio. N.Y. 132, 629 (1969)], the animals were starved for 16 hours, then treated orally and one hour following the treatment they were allocated in an exsiccator where the pressure was decreased to 170 Hgmm within 20 seconds. The time of survival was registered from this time point up to the last respiration. The animals were considered as protected when they were alive for a time longer by 100% than the average time of survival of the control group. The ED50 value (i.e. the dose which was effective in 50%) was calculated from the percentage of the protected animals by using the probit analysis method.

hypobaric hypoxia test = type: in vivo; conditions: 1 h; oral, one hour before, 170 Hgmm; protected = survival longer by 100% than control
Protocol: as §2

mice [3] = test: maximal electroshock model (anticonvulsive); type: in vivo; conditions: Mus musculus, po; 20 mA, 0.2 sec.; p.o.; read-out: Anticonvulsive effect, Max. electroshock ED50
Source text: On using the maximal electroshock model [Swinyard E. A. et at.: J. Pharmacol. Exp. Ther. 106, 319 (1959)], a shock (20 mA, 0.2 sec. HSE Shock Equipment Type 207) was given to mice weighing 22 to 24 g by using corneal electrodes. The animals were considered as protected the tonic extension of the lower extremities of which were abolished.

mice [4] = test: metrazole seizure method (anticonvulsive); type: in vivo; conditions: Mus musculus, po; 125 mg/kg s.c. pentylenetetrazole; p.o.; read-out: Anticonvulsive effect, Metrazole seizure ED50
Protocol: On using the metrazole seizure method [Everett, G. M. and Richards, R. K.: J. Pharmacol. Exp. Ther., 81, 402 (1944)], a subcutaneous dose of 125 mg/kg of pentylenetetrazole was administered to mice after pre-treatment. The persistant clonic convulsions as well as the tonic extensory convulsions abolished by the treatment were registered.

in vivo [5] = conditions: po
Protocol: On using the muscle incoordination model (rotarod method) [H. Kwibara et al.: Japan J. Pharmacol. 27, 117 (1977)], after a previous training the animals were selected which could […] for 120 seconds on a horizontal rod of 20 mm in diameter rotating with 12 rpm. A muscle-incoordinating action was stated when the animals fell down from the rotating rod within the time limits.

in vivo [6] = test: in vivo; parameters: species or system mice; conditions: mouse, po
Source text: On determining the muscle relaxant activity (traction test), male mice weighing 18 to 22 g were suspended by their upper legs on a horizontal wire of 5 mm in diameter.

[7] = isolated guinea pig ileum, barium chloride

| Compound | Circulatory effects (change in %): Carotid artery flow (internal carotid artery) | Circulatory effects (change in %): Femoral flow (femoral artery) | Time of survival, % [2] | Time of survival, Mean ± deviation [2] | Protection [2] | ED50 (asphyxic anoxia test) | ED50 (hypobaric hypoxia test) | also measured |
| --- | --- | --- | --- | --- | --- | --- | --- | --- |
| CCC12C=C(C(=O)OCCO)n3c4c(c5c([N+](=O)[O-])cccc53)CCN(CCC1)C42 (single isomer, unassigned) [2-Hydroxyethyl 9-nitroapovincamate, 2-hydroxyethyl 9-nitroapovincamate] | +45% | +10% | – | – | – | – | – | – |
| CCOC(=O)C1=CC2(CC)CCCN3CCc4c(n1c1cccc([N+](=O)[O-])c41)C32 (single isomer, unassigned) [Ethyl 9-nitroapovincamate, ethyl 9-nitroapovincamate] | +95% | 0% | 123% | 13.4 ± 2.37 min | 80% | – | – | IC50 [1, 7]: 1 µg/mL (≈ 2.53 µM) |
| CCOC(=O)C1=CC2(CC)CCCN3CCc4c(n1c1cc([N+](=O)[O-])ccc41)C32 (single isomer, unassigned) [Ethyl 11-nitroapovincamate, ethyl 11-nitroapovincamate] | – | – | 83% | 11.0 ± 3.35 min | 50% | – | – | – |
| CCOC(=O)C1=CC2(CC)CCCN3CCc4c(n1c1cccc([N+](=O)[O-])c41)C32 (single isomer, unassigned) [ethyl 9-nitroapovincamate monohydrochloride] | – | – | – | – | – | 42.7 mg/kg | > 50 mg/kg | ED50 (mice [3]): 25.6 mg/kg; ED50 (mice [4]): 27.6 mg/kg; TD50 (in vivo [5]): > 180 mg/kg; TD50 (in vivo [6]): > 180 mg/kg |
| CCOC(=O)C1=C[C@]2(CC)CCCN3CCc4c(n1c1ccccc41)[C@@H]32 [Ethyl (+)-apovincamate, reference compound] | +30% | +15% | 7% | 6.4 ± 1.58 min | – | > 50 mg/kg | > 50 mg/kg | IC50 [1, 7]: 2 µg/mL (≈ 5.71 µM) |
| CCC1(c2ccccc2)NC(=O)N(C)C1=O (centres unmarked) [Mephenytoin] | – | – | – | – | – | > 80 mg/kg | > 80 mg/kg | TD50 (in vivo [5]): 78.6 mg/kg |
| COc1ccc(Cc2nccc3cc(OC)c(OC)cc23)cc1OC [Papaverine, reference compound] | – | – | – | – | – | – | – | IC50 [1]: 5.4 µg/mL (≈ 15.9 µM) |
| CCCOC(=O)C1=C[C@]2(CC)CCCN3CCc4c(n1c1cccc([N+](=O)[O-])c41)[C@@H]32 [Propyl 9-nitroapovincamate] | – | – | – | – | – | – | – | ED50, inhibition of barium-chloride-induced contraction of guinea pig ileum [1, 7]: 0.2 µg/mL |
| CC[C@]12CCCN3CCc4c(n(c5ccccc45)[C@@](O)(C(=O)OC)C1)[C@@H]32 [Vincamine, reference compound] | – | – | 2% | 6.1 ± 1.30 min | – | – | – | – |
| Acetoxyethyl 9-nitroapovincamate | – | – | 68% | 10.1 ± 3.51 min | 30% | – | – | ED50, inhibition of barium-chloride-induced contraction of guinea pig ileum [1, 7]: 0.4 µg/mL |
